In EP0129932A1, “N,N,N',N'-tetra (hydroxyethyl)-5-acetylamino-2,4,6-triiodoisophtaloyldiglycinamide, a process for the preparation of said compound and an X-ray contrast agent containing said compound” (DAGRA N.V., priority 1983, dated 1985):
Values after ≈ are worked out from the molar mass of the structure shown.

How the values were obtained:
mice = assay: intravenous toxicity in mice; format: in vivo; settings: solution of 300 mg I/ml, injection rate 20 g 1/kg/min
Method: The intravenous toxicity was determined in mice, after administration of a solution of 300 mg I/ml at an injection rate of 20 g 1/kg/min.

physchem = settings: water

CC(=O)Nc1c(I)c(C(=O)NCC(=O)N(CCO)CCO)c(I)c(C(=O)NCC(=O)N(CCO)CCO)c1I [The compound]
LD50 (mice): 15.4 g I/kg
solubility (physchem): ~3000 mg/mL (≈ 3370 mM)
